Experimental data: article PMC8878324, “Evaluation of New Antimicrobial Agents Based on tris(1H-Indol-3-yl)methylium Salts: Activity, Toxicity, Suppression of Experimental Sepsis in Mice” (Pharmaceuticals, 2022)
Where two headings read alike, the source gives them in different places.

Legend:
[1] = Cytotoxic activity, MTT assay; format: cell-based, human; details: human, HPF-hTERT
Method: (§1) The cytotoxic activity of the compounds was evaluated on the healthy donor (postnatal) human fibroblasts immortalized by transfection of the hTERT gene of the catalytic component of telomerase (hereinafter HPF-hTERT) that were obtained from N.N. Blokhin Russian Cancer Research Center. HFC-hTERT cells were cultured in Dulbecco’s modified medium (DMEM) containing 2 mM of L-glutamine, 10% fetal calf serum, 100 U/mL of penicillin and 100 μg/mL of streptomycin. Incubation was performed in a humidified atmosphere of 5% CO2 at 37 °C. In the experiment, we used cells in the logarithmic growth phase. To study the cytotoxicity of compounds, 190 μL of cell suspension (~2 thousand cells per well) was added to the wells of 96-well plates and incubated for 16 h. On the day of the experiment, serial dilutions of the test compounds were prepared in DMSO (stock solution—10 mM in 100% DMSO). Further dilutions were conducted in a nutrient medium. The final concentrations of compounds in the experiment were in a concentration range from 0.0025 to 50 μM. The final concentration of DMSO was 1% or less. Each concentration was presented in 3 repetitions. […] The cells were incubated with the test compounds for 72 h. After the end of incubation, 20 μL of MTT solution in growth medium (5 mg/mL) was added to the wells. The cells were incubated for 2 h until a purple color developed, after which the culture medium was removed. DMSO was added to the wells, and the sediment was suspended. Optical density was measured with a Thermo Scientific Multiscan FC spectrophotometer at 570 nm. The values of optical density in wells without addition of test compounds (control) were taken as 100% cell survival. The percentage of survival of cells incubated with the test compounds was calculated by dividing the optical density in the corresponding well (average of 3 independent measurements) by the optical density in the control. The concentration of drugs causing 50% cell death (IC50) was evaluated and expressed in μg/mL.

HPF-hTERT = test: Cytotoxic activity, MTT assay; format: cell-based, human; details: 72 h
Method: as §1

Gram-positive bacteria = test: MIC against Gram-positive bacteria; format: cell-based
Method: We have tested the antimicrobial activity in vitro of over 100 tris(indolyl)methane derivatives against 16 strains of Gram-positive, Gram-negative bacteria and fungi including either sensitive or drug-resistant strains from ATCC, as well as resistant clinical isolates from the culture collection of the Laboratory for Control of Hospital Infections (Sechenov University, Moscow, Russia). The minimum inhibitory concentrations (MICs) were determined by the microdilution method in a cation-adjusted Müller–Hinton medium for bacteria and in a liquid culture medium RPMI 1640 with L-glutamine without sodium bicarbonate for fungi in accordance with the requirements of the Institute of Clinical and Laboratory Standards (CLSI/NCCLS). […] As a rule, their activity against Gram-negative bacteria was usually not that high. […] For comparison, the antimicrobial activity of prototype 4 is shown. The antibacterial antibiotic levofloxacin and the antifungal amphotericin B were used as reference drugs (Table 1).
The minimum inhibitory concentrations (MIC) for Gram-positive and Gram-negative bacteria were determined by two-fold serial microdilution method in a cation-adjusted Müller–Hinton medium for bacteria and in a liquid culture medium RPMI 1640 with L-glutamine without sodium bicarbonate for fungi in accordance with the requirements of the Institute of Clinical and Laboratory Standards (CLSI/NCCLS). The antibacterial antibiotic levofloxacin and the antifungal antibiotic amphotericin B from Sigma-Aldrich were used as reference drugs.

| Compound | IC50 at 72 h [1] | Cytotoxic Activity IC50 (HPF-hTERT) | MIC (Gram-positive bacteria; read-out: MIC) | MIC (Gram-positive bacteria) |
| --- | --- | --- | --- | --- |
| OCCCCCn1cc([C+](c2cn(CCCCCO)c3ccccc23)c2cn(CCCCCO)c3ccccc23)c2ccccc21.[Cl-] [Compound 1, tris(1-(5-Hydroxypentyl)-1H-indol-3-yl) methylium chloride] | 12.6 µg/mL | 13 µg/mL | 2 µg/mL | – |
| CCCn1cc([C+](c2cn(CCC)c3ccccc23)c2cn(C3=C(N)C(=O)NC3=O)c3ccccc23)c2ccccc21.[Cl-] [Compound 2, (1-(4-Amino-2,5-dioxo-2,5-dihydro-1H-pyrrol-3-yl)-1H-indol-3-yl)bis(1-propyl-1H-indol-3-yl) methylium chloride] | 2.77 µg/mL | 2.8 µg/mL | – | – |
| CCCn1cc([C+](c2cn(CCC)c3ccccc23)c2cn(C3=C(N(C)C)C(=O)NC3=O)c3ccccc23)c2ccccc21 [Compound 3, 1-(4-Dimethylamino-2,5-dioxo-2,5-dihydro-1H-pyrrol-3-yl) -1H-indol-3-yl) bis(1-propyl-1H-indol-3-yl) methylium chloride] | 0.57 µg/mL | 0.6 µg/mL | – | 0.13 µg/mL |
| C[C@H]1COc2c(N3CCN(C)CC3)c(F)cc3c(=O)c(C(=O)O)cn1c23 [Levofloxacin, levofloxacin, reference compound] | > 50 µg/mL | – | – | – |
